According to patent US20070203239A1, “Compounds For The Treatment Of An Acute Injury To The Central Nervous System” (Neurotec Pharma, S.L., priority 2004, published 2007):

Columns and labels:
[1] = test system: hippocampal microglial reaction; assay: Microglial reaction (IB4 histochemistry) after stereotaxic intrahippocampal microinjection, AMPA excitotoxicity model; assay type: in vivo, rat; settings: for density of reactive microcytes (IB4-stained) / hippocampal microgliosis area: rat dorsal hippocampus, 24 hours after lesion, mean ± SEM, n=4; for hippocampal microgliosis area: two 0.5 μl injections 2 h apart (5.4 mM AMPA and/or 20 μM glibenclamide)
Protocol: (§1) In this neurodegenerative model, rats were anaesthetized with equithesin (a mixture of chloral hydrate and sodium pentobarbitone; 0.3 ml/100 g body wt, i.p.), and placed on a Kopf stereotaxic frame with the incisor bar set at −3.3 mm. Intracerebral injections aimed at the dorsal hippocampus were performed at 3.3 mm caudal to bregma, 2.2 mm lateral, and 2.9 mm ventral from dura (cf. G. Paxinos et al., “The rat brain in stereotaxic coordinates”, Sydney: Academic Press 1986). A volume of 0.5 μl was injected over a period of 5 min.
(§2) Four different groups of rats received two injections in a 2-hour interval as follows: a) sham rats (n=4) received two injections of PBS; b) AMPA rats (n=4) received the first injection of 5.4 mM AMPA and the second of PBS; c) glibenclamide rats (n=4) received two injections of 20 μM glibenclamide; d) AMPA+glibenclamide rats (n=4) received 5.4 mM AMPA+20 μM glibenclamide in the first injection and 20 μM glibenclamide in the second injection. All rats were sacrified 24 hours after the lesion.
(§3) Rats were transcardially perfused with 300 ml of 0.1 M phosphate buffer (PB, pH 7.4) followed by 300 ml ice-cold fixative (flow rate 20 ml/min). The fixative consisted of 4% (w/v) paraformaldehyde in PB. Brains were removed, crioprotected with 15% (w/v) sucrose in PB and then, frozen with dry ice.
Cryostat sections (12 μm) were obtained at the level of dorsal hippocampus (−3.3 mm to bregma). Isolectine B4 (IB4) histochemistry was performed to identify the microglial reaction (cf. C. A. Colton et al., J. Histochem. Cytochem. 1992, vol. 40, pp. 505-12). The hippocampal morphology was studied in Cresyl violet stained sections. The area of lesion and the microgliosis evaluation were performed on cresyl violet and IB4-positive stained sections respectively. These parameters were analyzed using a computer-assisted image analysis system (OPTIMAS®, BioScan Inc., Washington, USA). IB4-stained reactive microcytes were counted at ×100 magnification using an ocular grid mounted on a transmission light microscope (Axiolab, Zeiss, Göttingen, Germany). One-way ANOVA was used to compare differences between groups, followed by the LSD post-hoc test. Results are expressed as mean ± SEM.

[2] = test system: AMPA induced rat hippocampal excitotoxic damage; assay: Hippocampal CA1 lesion area (cresyl violet) after stereotaxic intrahippocampal microinjection, AMPA excitotoxicity model; assay type: in vivo; settings: for area of hippocampal CA1 pyramidal layer lesion: rat dorsal hippocampus, two injections 2 h apart (5.4 mM AMPA and/or 20 μM glibenclamide), 24 hours after lesion, mean ± SEM
Protocol: as §1, §2, §3
Cryostat sections (12 μm) were obtained at the level of dorsal hippocampus (−3.3 mm to bregma). Isolectine B4 (IB4) histochemistry was performed to identify the microglial reaction (cf. C. A. Colton et al., J. Histochem. Cytochem. 1992, vol. 40, pp. 505-12). The hippocampal morphology was studied in Cresyl violet stained sections. […] These parameters were analyzed using a computer-assisted image analysis system (OPTIMAS®, BioScan Inc., Washington, USA). IB4-stained reactive microcytes were counted at ×100 magnification using an ocular grid mounted on a transmission light microscope (Axiolab, Zeiss, Göttingen, Germany). […] Results are expressed as mean ± SEM.

[3] = rat AMPA hippocampal excitotoxicity model, 20 μM glibenclamide

SMILES | density of reactive microcytes (IB4-stained) [1] | hippocampal microgliosis area [1] | area of hippocampal CA1 pyramidal layer lesion [2] | effect on microglial activation (in words) [1, 3] | effect on hippocampal lesion (in words) [2, 3]
Cc1onc(O)c1CC(N)C(=O)O (stereo not drawn) [AMPA, α-amino-3-hydroxy-5-methylisoxazole-4-propionic] | 645±59 cells/mm^2 | 0.44±0.07 mm^2 | 0.130±0.015 mm^2 |  | 
COc1ccc(Cl)cc1C(=O)NCCc1ccc(S(=O)(=O)NC(=O)NC2CCCCC2)cc1 [glibenclamide] | 614±91 cells/mm^2 | 0.16±0.03 mm^2 | 0.012±0.0017 mm^2 | potentiates microglial activation | avoids hippocampal excitotoxic damage
